In ChEMBL document CHEMBL1201862, “PubChem BioAssay data set” (2004):
The source made the active and inactive calls.

Columns and labels:
[1] = molecular target: T1, Runt-related transcription factor 1/Core-binding factor subunit beta (Homo sapiens, UniProt Q01196+Q13951); assay: disruptors of Runt domain/CBFb-SMMHC interaction – biochemical, FRET, Cerulean-Runt, Venus-CBFb-SMMHC, uHTS, […] (AID 1434); type: protein assay
[2] = molecular target: T1, Runt-related transcription factor 1/Core-binding factor subunit beta; assay: Runt domain/CBFb-SMMHC interaction disruptors – biochemical, TR-FRET (AID 1438); type: protein assay
Coagulation factor XII = molecular target: T2, Coagulation factor XII (Homo sapiens, UniProt P00748); assay: activated coagulation factor XII inhibitor potency, concentration-effect curve, cell-free (AID 716); type: functional
T2 sequence (P00748 whole entry): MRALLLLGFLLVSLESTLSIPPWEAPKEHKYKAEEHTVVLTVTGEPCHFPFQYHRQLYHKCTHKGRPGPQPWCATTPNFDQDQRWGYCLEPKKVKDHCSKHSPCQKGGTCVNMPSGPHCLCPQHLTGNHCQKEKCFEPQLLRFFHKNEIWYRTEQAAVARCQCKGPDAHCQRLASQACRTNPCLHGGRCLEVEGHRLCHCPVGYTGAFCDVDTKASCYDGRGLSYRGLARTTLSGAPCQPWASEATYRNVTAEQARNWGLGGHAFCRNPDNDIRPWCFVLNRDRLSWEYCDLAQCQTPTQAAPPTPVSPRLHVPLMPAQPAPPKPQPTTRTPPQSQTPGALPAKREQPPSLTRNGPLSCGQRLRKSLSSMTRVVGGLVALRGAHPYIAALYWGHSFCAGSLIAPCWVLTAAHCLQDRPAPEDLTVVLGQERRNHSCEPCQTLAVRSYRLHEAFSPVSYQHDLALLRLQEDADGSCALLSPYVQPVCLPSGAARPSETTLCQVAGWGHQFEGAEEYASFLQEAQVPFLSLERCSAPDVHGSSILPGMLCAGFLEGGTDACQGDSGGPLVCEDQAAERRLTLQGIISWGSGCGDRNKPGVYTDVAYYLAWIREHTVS

[3] = Luminescence Cell-Based Dose Retest to Confirm Activators of 5'UTR Stem-Loop Driven Alpha-Synuclein mRNA Translation in H4 Neuroglioblastoma Cells. [Related pubchem assays (depositor defined):AID1813, AID1829]; type: functional
[4] = Luminescence Cell-Based Dose Response HTS to Identify Activators of Luciferase Translation or Activity in H4-C Neuroglioblastoma Cells. [Related pubchem assays: 1829 (Project Summary), 1814 (Primary HTS)]; type: functional
[5] = Luminescence Cell-Based Dose Confirmation HTS to Identify Activators of 5'UTR Stem-Loop Driven Alpha-Synuclein mRNA Translation in H4 Neuroglioblastoma Cells. [Related pubchem assays: 1829 (Project Summary), 1814 (Primary HTS)]; type: functional
[6] = Luminescence Cell-Based Dose Response HTS to Identify Activators of Luciferase Translation or Activity in H4 […] Cells. [Related pubchem assays: 1829 (Project Summary), 1814 (Primary HTS)]; type: functional
[7] = Luminescence Cell-Based Dose Response HTS to Identify Activators of 5'UTR Stem-Loop Driven Prion Protein mRNA Translation in H4-C Neuroglioblastoma Cells. [Related pubchem assays: 1829 (Project Summary), 1814 (Primary HTS)]; type: functional
H4 = assay: Luminescence Cell-Based Dose Response HTS to Identify Activators of 5'UTR Stem-Loop Driven Prion Protein mRNA Translation in H4 Neuroglioblastoma Cells. [Related pubchem assays: 1829 (Project Summary), 1814 (Primary HTS)]; type: functional; conditions: Homo sapiens
[8] = molecular target: NACHT, LRR and PYD domains-containing protein 3 (Homo sapiens, UniProt Q96P20); assay: NALP3 inhibitors in yeast, dose response, luminescent (AID 488799); type: functional
[9] = molecular target: Alkaline phosphatase, placental type (Homo sapiens, UniProt P05187); assay: human placental alkaline phosphatase inhibition – biochemical, luminescence, confirmation (AID 1512); type: functional
[10] = molecular target: T3, Alkaline phosphatase, tissue-nonspecific isozyme (Homo sapiens, UniProt P05186); assay: potency against alkaline phosphatase TNAP – biochemical, luminescent, dose response, SAR follow-up (AID 1056)
T3 sequence (P05186 whole entry): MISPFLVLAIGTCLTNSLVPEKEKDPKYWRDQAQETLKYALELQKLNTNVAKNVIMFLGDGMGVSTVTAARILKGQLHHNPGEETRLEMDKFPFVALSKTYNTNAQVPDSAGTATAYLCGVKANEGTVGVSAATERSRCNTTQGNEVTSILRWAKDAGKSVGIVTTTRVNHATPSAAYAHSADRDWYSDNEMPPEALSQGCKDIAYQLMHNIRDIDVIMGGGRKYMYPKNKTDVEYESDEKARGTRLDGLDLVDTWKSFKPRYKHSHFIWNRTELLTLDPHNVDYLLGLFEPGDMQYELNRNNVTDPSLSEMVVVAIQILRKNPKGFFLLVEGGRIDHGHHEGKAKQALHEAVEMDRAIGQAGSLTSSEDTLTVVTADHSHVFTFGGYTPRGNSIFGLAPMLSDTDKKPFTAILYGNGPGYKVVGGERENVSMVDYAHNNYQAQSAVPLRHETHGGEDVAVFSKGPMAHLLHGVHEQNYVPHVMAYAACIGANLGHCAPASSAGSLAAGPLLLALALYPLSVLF

[11] = molecular target: T4, Kappa-type opioid receptor (Homo sapiens, UniProt P41145); assay: SAR analysis of small molecule antagonists of the kappa opioid receptor via a luminescent beta-arrestin assay - Set 3. [Related pubchem assays (depositor defined):AID1777, AID1778, AID1785, AID1786, AID1966, AID2133, AID2136, AID2285, AID2495]; type: functional
Mu-type opioid receptor = Mu-type opioid receptor (Homo sapiens, UniProt P35372); assay: SAR Analysis of Antagonists of the MOR Receptor using an Image-Based Assay - Set 3. [Related pubchem assays (depositor defined):AID1777, AID1785, AID1786, AID1966, AID2133, AID2136, AID2284, AID2285, AID2420]; type: functional
[12] = molecular target: T4, Kappa-type opioid receptor; assay: SAR analysis of Antagonists of the Kappa Opioid Receptor (KOR) using an Image-Based Assay - Set 3. [Related pubchem assays (depositor defined):AID1777, AID1785]; type: functional
[13] = molecular target: Delta-type opioid receptor (Homo sapiens, UniProt P41143); assay: SAR Analysis of Antagonists of the DOR Receptor using an Image-Based Assay - Set 3. [Related pubchem assays (depositor defined):AID1777, AID1785]; type: functional;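 note: U2OS cells expressing DOR1 and beta-arrestin GFP stimulated with 100 nM SNC80; imaging of GFP-tagged beta-arrestin moving into spots after receptor activation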
Troponin, cardiac muscle = Troponin, cardiac muscle (Homo sapiens, UniProt P19429+P45379+P63316); assay: Fluorescence-based biochemical high throughput dose response assay for activators of the calcium sensitivity of cardiac Regulated Thin Filaments (RTF). [Related pubchem assays (depositor defined):AID493008, AID493018, AID504382, AID504383]; type: protein-complex assay

## C/C(=N\Nc1nc(-c2cc(C)ccc2C)cs1)c1cc2c(ccc3ccccc32)oc1=O
[1]
  IC50: > 100 µM (inactive)
[2]
  IC50: 10.1 µM (active)

## O=C(NCc1n[nH]c(=S)n1-c1ccccc1)c1ccco1
Coagulation factor XII
  IC50: > 50 µM (inactive)

## O=C1Nc2ccccc2S/C1=C\C(=O)N1CCCC1
[3]
  EC50: > 195 µM (inactive)
[4]
  EC50: 13.2 µM (active)
[5]
  EC50: 264 nM (active)
[6]
  EC50: 8.16 µM (active)
[7]
  EC50: 9.5 µM (active)
H4
  EC50: > 120 µM (not active)

## COc1cc(CNCCc2ccccc2)ccc1OCc1ccc(Cl)nc1
[8]
  IC50: 30.1 µM (active)

## COCCNC(=O)NC1(C(F)(F)F)Oc2cc(Cl)c(Cl)cc2O1
[9]
  IC50: > 100 µM (inactive)

## CC(C)NCC(=O)c1ccc(O)c(O)c1
[10]
  IC50: > 100 µM (inactive)

## O=C(Cn1c(=O)c2cccn2c2cccnc21)NCCCN1CCC(Cc2ccccc2)CC1
[11]
  IC50: 4.65 µM (active)
Mu-type opioid receptor
  IC50: > 32 µM (inactive)
[12]
  IC50: 1.31 µM (active)
[13]
  IC50: > 32 µM (inactive)

## O=[N+]([O-])c1ccc(/C=C/C2=NN(c3ccccc3)C(c3ccco3)C2)cc1 (configuration not stated)
Troponin, cardiac muscle
  EC50: 397 nM (active)
